Measurements as given in ChEMBL document CHEMBL6087427, “Discovery of novel cyclopentane carboxylic acids as potent and selective inhibitors of NaV1.7” (Bioorg Med Chem Lett, 2025).
In brackets after ≈: the same amount, converted by molar mass.

Key:
[1] = molecular target: T1, Sodium channel protein type 9 subunit alpha (Homo sapiens, UniProt Q15858); test: Displacement of [3H]GX-545 from Nav1.7 VSD4 (unknown origin)
Target sequence in this assay (Q15858 whole entry): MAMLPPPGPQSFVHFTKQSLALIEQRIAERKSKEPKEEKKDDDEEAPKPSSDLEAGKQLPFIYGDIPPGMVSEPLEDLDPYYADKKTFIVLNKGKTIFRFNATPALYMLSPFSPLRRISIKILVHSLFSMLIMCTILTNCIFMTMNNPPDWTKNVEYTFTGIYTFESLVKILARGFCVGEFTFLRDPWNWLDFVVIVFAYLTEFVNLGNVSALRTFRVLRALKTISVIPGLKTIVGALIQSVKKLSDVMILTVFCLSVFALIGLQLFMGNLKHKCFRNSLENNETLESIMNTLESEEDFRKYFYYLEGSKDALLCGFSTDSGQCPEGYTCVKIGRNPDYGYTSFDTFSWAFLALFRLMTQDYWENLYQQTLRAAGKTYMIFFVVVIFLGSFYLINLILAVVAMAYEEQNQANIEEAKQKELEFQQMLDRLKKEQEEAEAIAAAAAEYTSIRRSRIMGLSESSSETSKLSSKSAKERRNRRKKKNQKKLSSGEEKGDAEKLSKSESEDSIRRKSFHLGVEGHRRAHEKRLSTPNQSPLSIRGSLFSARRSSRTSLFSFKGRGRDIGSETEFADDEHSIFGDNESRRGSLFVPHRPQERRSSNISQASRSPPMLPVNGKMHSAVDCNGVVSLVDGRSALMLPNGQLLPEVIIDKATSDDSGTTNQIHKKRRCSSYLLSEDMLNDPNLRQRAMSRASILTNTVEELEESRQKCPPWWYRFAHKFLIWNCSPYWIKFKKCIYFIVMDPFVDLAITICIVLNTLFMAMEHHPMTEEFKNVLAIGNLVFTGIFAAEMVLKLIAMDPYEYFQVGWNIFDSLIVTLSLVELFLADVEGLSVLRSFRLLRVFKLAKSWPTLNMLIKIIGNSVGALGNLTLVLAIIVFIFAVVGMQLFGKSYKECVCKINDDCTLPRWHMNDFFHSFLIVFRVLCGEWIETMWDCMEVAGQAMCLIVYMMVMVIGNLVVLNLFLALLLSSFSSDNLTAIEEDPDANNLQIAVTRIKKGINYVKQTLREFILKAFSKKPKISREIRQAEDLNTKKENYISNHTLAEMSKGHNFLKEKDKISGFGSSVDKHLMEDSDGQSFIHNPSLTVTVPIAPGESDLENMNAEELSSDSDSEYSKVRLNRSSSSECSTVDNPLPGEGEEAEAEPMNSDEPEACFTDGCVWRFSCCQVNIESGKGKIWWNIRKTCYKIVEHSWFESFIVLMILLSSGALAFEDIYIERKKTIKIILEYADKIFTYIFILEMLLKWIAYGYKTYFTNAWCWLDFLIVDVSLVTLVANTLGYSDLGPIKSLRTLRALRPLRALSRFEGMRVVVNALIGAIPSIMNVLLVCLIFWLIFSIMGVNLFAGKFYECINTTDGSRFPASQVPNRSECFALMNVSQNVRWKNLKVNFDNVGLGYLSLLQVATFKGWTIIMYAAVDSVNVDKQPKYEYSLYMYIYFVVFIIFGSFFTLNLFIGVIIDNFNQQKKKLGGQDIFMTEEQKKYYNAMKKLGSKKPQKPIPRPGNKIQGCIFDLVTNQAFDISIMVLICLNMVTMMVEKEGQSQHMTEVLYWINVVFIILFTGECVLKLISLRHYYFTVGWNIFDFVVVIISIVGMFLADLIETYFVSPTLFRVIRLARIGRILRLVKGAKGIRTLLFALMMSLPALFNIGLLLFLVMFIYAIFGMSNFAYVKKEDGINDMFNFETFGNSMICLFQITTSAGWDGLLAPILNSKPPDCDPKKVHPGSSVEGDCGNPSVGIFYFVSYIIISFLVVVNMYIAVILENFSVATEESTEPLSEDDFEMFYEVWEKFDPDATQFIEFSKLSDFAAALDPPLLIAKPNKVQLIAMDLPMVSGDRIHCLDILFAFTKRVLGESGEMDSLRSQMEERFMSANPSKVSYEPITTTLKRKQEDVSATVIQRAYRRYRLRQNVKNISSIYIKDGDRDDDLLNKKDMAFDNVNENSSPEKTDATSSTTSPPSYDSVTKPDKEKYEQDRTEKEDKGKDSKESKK

[2] = molecular target: Sodium channel protein type 5 subunit alpha (Homo sapiens, UniProt Q14524); test: Inhibition of human Nav1.5 by patch clamp electrophysiology
[3] = molecular target: T1, Sodium channel protein type 9 subunit alpha; test: Inhibition of human Nav1.7 by sodium flux assay
Target sequence in this assay (Q15858 whole entry): as above

[4] = Metabolic stability in mouse liver microsomes assessed as hepatic clearance; assay type: ADME, Microsome
[5] = AUC in mouse at 3 mg/kg, po; assay type: ADME, organism-based; conditions: in vivo
[6] = molecular target: T1, Sodium channel protein type 9 subunit alpha; test: Inhibition of human Nav1.7 by patch clamp electrophysiology
Target sequence in this assay (Q15858 whole entry): as above

[7] = molecular target: T1, Sodium channel protein type 9 subunit alpha; test: Inhibition of human Nav1.7 assessed as fold shift in IC50 in presence of BSA by sodium flux assay
Target sequence in this assay (Q15858 whole entry, looked up): as the sequence (Q15858 whole entry) above

[8] = Metabolic stability in human liver microsomes assessed as hepatic clearance; assay type: ADME, Microsome
[9] = Drug concentration in plasma of aconitine-induced nociception in IEM transgenic FVB mouse model at 10 mg/kg, po pretreated for 2 hrs followed by aconitine administration measured for 30 mins post-aconitine dose; assay type: ADME, organism-based
[10] = Plasma protein binding in human; assay type: ADME, cell-free; conditions: read-out: PPB
[11] = molecular target: T2, Cytochrome P450 1A2 (Homo sapiens, UniProt P05177); test: Inhibition of CYP1A2 (unknown origin); assay type: ADME
T2 sequence (P05177 whole entry): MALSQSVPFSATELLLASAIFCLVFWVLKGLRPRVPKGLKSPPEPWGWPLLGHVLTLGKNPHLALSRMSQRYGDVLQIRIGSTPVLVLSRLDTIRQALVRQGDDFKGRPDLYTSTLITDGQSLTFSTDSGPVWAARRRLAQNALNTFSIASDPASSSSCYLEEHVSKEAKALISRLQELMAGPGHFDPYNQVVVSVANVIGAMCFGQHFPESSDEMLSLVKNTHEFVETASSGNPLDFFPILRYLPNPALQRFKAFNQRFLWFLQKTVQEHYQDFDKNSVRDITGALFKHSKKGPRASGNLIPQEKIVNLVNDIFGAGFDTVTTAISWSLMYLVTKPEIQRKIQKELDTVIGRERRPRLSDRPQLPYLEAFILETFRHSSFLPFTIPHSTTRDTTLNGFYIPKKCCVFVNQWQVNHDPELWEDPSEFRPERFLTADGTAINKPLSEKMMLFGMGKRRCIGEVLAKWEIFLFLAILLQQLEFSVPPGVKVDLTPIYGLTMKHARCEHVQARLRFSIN

[12] = molecular target: Sodium channel protein type 8 subunit alpha (Homo sapiens, UniProt Q9UQD0); test: Inhibition of human Nav1.6 by patch clamp electrophysiology
[13] = molecular target: Cytochrome P450 2C19 (Homo sapiens, UniProt P33261); test: Inhibition of CYP2C19 (unknown origin); assay type: ADME
[14] = Volume of distribution at steady state in mouse at 1 mg/kg, iv; assay type: ADME, organism-based; conditions: in vivo, read-out: Vdss
[15] = tested on: Mus musculus; test: Analgesic activity in aconitine-induced nociception in IEM transgenic FVB mouse model assessed as reduction in pain response at 3 mg/kg, po pretreated for 2 hrs followed by aconitine administration measured for 30 mins post-aconitine dose relative to control; assay type: functional; design: scale not given: the % may be the effect or the level left; conditions: time 2.5 hrs
[16] = tested on: Mus musculus; test: Analgesic activity in aconitine-induced nociception in IEM transgenic FVB mouse model assessed as reduction in pain response at 10 mg/kg, po pretreated for 2 hrs followed by aconitine administration measured for 30 mins post-aconitine dose relative to control; assay type: functional; design: scale not given: the % may be the effect or the level left; conditions: time 2.5 hrs
[17] = Apparent permeability across apical to basolateral side in MDCK cells; assay type: ADME, cell-based, Canis lupus familiaris; conditions: dog
[18] = Half life in mouse at 1 mg/kg, iv; assay type: ADME, organism-based; conditions: in vivo
[19] = molecular target: Sodium channel protein type 1 subunit alpha (Homo sapiens, UniProt P35498); test: Inhibition of human Nav1.1 by patch clamp electrophysiology
[20] = Drug concentration in plasma of aconitine-induced nociception in IEM transgenic FVB mouse model at 3 mg/kg, po pretreated for 2 hrs followed by aconitine administration measured for 30 mins post-aconitine dose; assay type: ADME, organism-based
[21] = Oral bioavailability in mouse at 3 mg/kg; assay type: ADME, organism-based; conditions: in vivo
[22] = tested on: Mus musculus; test: Analgesic activity in aconitine-induced nociception in IEM transgenic FVB mouse model assessed as inhibition of nociceptive behaviour at 3 to 100 mg/kg, po pretreated for 2 hrs followed by aconitine administration measured for 30 mins post-aconitine dose; assay type: functional, organism-based
[23] = molecular target: Sodium channel protein type 2 subunit alpha (Homo sapiens, UniProt Q99250); test: Inhibition of human Nav1.2 by patch clamp electrophysiology
[24] = Drug concentration in plasma of aconitine-induced nociception in IEM transgenic FVB mouse model at 100 mg/kg, po pretreated for 2 hrs followed by aconitine administration measured for 30 mins post-aconitine dose; assay type: ADME, organism-based
[25] = Half life in mouse at 3 mg/kg, po; assay type: ADME, organism-based; conditions: in vivo
[26] = Drug concentration in plasma of aconitine-induced nociception in IEM transgenic FVB mouse model at 30 mg/kg, po pretreated for 2 hrs followed by aconitine administration measured for 30 mins post-aconitine dose; assay type: ADME, organism-based
[27] = molecular target: Cytochrome P450 2D6 (Homo sapiens, UniProt P10635); test: Inhibition of CYP2D6 (unknown origin); assay type: ADME
[28] = Drug concentration in brain of aconitine-induced nociception in IEM transgenic FVB mouse model at EC50 pretreated orally for 2 hrs followed by aconitine administration measured for 30 mins post-aconitine dose; assay type: ADME, tissue-based; conditions: route po, read-out: Ct
[29] = Metabolic stability in human hepatocytes assessed as hepatic clearance; assay type: ADME, cell-based, Hepatocyte
[30] = molecular target: Cytochrome P450 3A4 (Homo sapiens, UniProt P08684); test: Inhibition of CYP3A4 (unknown origin); assay type: ADME
[31] = molecular target: Cytochrome P450 2C9 (Homo sapiens, UniProt P11712); test: Inhibition of CYP2C9 (unknown origin); assay type: ADME
[32] = tested on: Mus musculus; test: Analgesic activity in aconitine-induced nociception in IEM transgenic FVB mouse model assessed as reduction in pain response at 100 mg/kg, po pretreated for 2 hrs followed by aconitine administration measured for 30 mins post-aconitine dose relative to control; assay type: functional; design: scale not given: the % may be the effect or the level left; conditions: time 2.5 hrs
[33] = Kinetic solubility of compound; assay type: physicochemical; conditions: read-out: Kinetic_solubility
[34] = tested on: BCRP; test: Efflux ratio in MDCK-BCRP cells; assay type: ADME, cell-based, Canis lupus familiaris; conditions: dog
[35] = Plasma protein binding in mouse; assay type: ADME, cell-free; conditions: read-out: PPB
[36] = tested on: MDR1 (P-gp); test: Efflux ratio in MDCK-MDR1 cells; assay type: ADME, cell-based, Canis lupus familiaris; conditions: dog
[37] = Cmax in mouse at 3 mg/kg, po; assay type: ADME, organism-based; conditions: in vivo
[38] = Metabolic stability in mouse hepatocytes assessed as hepatic clearance; assay type: ADME, cell-based, Hepatocyte
[39] = Ratio of drug concentration in brain to plasma of aconitine-induced nociception in IEM transgenic FVB mouse model at EC50 pretreated orally for 2 hrs followed by aconitine administration measured for 30 mins post-aconitine dose; assay type: ADME; conditions: route po, read-out: BPR
[40] = tested on: Mus musculus; test: Analgesic activity in aconitine-induced nociception in IEM transgenic FVB mouse model assessed as reduction in pain response at 30 mg/kg, po pretreated for 2 hrs followed by aconitine administration measured for 30 mins post-aconitine dose relative to control; assay type: functional; design: scale not given: the % may be the effect or the level left; conditions: time 2.5 hrs

Sequence of Sodium channel protein type 5 subunit alpha (Q14524 whole entry): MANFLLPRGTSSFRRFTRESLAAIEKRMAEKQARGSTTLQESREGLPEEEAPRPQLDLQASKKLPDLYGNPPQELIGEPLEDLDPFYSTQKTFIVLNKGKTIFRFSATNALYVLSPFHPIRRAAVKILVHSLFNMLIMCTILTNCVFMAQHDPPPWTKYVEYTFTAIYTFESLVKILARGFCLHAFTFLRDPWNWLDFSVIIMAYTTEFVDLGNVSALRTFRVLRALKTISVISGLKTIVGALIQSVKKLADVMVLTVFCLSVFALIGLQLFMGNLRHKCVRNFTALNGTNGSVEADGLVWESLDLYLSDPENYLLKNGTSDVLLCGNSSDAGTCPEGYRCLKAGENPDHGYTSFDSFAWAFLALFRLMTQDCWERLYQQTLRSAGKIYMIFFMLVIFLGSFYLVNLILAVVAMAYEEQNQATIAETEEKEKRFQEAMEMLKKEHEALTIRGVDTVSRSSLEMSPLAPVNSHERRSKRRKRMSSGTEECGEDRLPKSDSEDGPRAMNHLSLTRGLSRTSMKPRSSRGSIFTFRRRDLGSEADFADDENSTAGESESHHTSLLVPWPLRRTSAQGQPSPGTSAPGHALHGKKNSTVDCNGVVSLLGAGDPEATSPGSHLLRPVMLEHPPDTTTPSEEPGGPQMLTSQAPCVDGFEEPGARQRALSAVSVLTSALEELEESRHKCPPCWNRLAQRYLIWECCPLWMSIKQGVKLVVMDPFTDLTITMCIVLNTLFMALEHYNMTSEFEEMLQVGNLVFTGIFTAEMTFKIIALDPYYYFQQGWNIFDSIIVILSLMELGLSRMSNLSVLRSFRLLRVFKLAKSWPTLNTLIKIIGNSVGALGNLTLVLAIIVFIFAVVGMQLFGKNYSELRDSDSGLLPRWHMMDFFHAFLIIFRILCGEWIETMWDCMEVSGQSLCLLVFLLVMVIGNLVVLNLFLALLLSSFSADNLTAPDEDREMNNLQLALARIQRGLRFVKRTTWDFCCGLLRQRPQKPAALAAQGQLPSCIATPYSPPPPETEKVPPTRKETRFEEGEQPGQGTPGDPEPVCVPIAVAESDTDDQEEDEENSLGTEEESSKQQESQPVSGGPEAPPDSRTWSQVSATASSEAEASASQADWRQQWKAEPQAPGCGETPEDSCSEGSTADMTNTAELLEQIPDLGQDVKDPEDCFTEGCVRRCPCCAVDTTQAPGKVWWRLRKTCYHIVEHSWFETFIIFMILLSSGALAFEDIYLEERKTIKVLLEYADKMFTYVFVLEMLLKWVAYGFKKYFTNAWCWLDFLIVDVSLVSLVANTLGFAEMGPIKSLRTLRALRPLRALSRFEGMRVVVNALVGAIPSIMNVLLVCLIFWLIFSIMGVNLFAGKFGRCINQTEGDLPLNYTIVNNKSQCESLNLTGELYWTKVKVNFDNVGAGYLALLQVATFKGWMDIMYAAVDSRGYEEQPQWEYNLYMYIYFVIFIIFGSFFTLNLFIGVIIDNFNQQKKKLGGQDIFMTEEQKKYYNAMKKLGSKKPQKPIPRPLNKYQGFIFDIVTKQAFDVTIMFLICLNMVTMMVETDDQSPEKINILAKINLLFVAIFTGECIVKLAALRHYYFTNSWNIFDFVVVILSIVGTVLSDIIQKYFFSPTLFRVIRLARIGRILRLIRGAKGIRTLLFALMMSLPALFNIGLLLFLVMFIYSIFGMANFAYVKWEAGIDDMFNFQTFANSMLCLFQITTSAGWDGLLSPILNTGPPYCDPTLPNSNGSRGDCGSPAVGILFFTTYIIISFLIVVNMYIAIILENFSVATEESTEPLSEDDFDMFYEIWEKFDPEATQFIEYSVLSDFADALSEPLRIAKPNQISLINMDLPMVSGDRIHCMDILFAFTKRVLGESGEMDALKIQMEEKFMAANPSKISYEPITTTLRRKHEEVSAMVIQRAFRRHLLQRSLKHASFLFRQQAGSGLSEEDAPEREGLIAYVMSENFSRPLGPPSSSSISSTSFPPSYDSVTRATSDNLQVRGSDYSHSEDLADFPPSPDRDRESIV
Sequence of Cytochrome P450 2D6 (P10635 whole entry): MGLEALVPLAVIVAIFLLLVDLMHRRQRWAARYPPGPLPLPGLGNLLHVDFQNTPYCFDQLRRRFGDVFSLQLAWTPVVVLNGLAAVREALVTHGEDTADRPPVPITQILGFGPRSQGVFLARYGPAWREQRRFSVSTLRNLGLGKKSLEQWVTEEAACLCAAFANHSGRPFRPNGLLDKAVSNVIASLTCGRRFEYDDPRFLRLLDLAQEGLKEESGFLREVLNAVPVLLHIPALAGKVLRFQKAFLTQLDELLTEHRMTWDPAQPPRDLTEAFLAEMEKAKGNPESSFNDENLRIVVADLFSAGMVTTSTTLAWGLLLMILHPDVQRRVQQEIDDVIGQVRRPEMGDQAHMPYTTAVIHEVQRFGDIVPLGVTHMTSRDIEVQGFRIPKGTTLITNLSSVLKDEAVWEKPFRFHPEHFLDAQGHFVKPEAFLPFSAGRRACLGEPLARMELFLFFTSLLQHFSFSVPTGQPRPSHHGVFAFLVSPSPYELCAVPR
Sequence of Cytochrome P450 2C19 (P33261 whole entry): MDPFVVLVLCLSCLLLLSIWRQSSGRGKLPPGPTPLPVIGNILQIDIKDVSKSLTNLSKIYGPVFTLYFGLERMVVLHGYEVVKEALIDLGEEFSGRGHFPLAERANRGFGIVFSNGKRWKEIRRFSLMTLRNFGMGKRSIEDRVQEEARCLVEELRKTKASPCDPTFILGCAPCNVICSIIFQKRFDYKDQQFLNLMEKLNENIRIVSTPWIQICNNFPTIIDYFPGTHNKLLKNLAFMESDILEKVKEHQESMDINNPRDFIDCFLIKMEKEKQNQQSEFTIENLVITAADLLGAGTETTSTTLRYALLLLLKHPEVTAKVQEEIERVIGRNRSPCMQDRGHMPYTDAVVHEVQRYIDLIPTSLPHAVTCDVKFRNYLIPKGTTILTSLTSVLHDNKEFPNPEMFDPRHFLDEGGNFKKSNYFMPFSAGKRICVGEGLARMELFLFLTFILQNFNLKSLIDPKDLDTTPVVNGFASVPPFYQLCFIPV

O=C(c1cc(C2CC2)c(OCC23CC4CC(CC(C4)C2)C3)cc1F)C1CCC[C@H]1C(=O)O (stereo partly drawn) showed a Ki [1] of 8.6 nM, an IC50 [2] of 2600 nM and an IC50 [3] of 250 nM. For the same compound, the CLhep predicted [4] was 61 mL/min/kg, the AUC ([5]; read-out: AUC) was 0.53 µM·h and the IC50 [6] was 12 nM. It also gave a fold change (FC) [7] of 1.5 and a CLhep predicted [8] of 17 mL/min/kg.
In the case of C[C@@H]1[C@H](F)CN(C(=O)c2cc(C3CC3)c(OCC34CC5CC(CC(C5)C3)C4)cc2F)[C@@H]1C(=O)O, the Ki [1] is reported as 220 nM.
In the case of O=C(O)[C@@H]1C[C@@H](O)CN1C(=O)c1cc(C2CC2)c(OCC23CC4CC(CC(C4)C2)C3)cc1F, the Ki [1] is reported as 390 nM.
N#C[C@H]1C[C@@H](C(=O)O)N(C(=O)c2cc(C3CC3)c(OCC34CC5CC(CC(C5)C3)C4)cc2F)C1 gave a Ki [1] of 870 nM.
O=C(O)[C@@H]1[C@H](F)CCN1C(=O)c1cc(C2CC2)c(OCC23CC4CC(CC(C4)C2)C3)cc1F showed a Ki [1] of 170 nM.
With C[C@@H]1[C@@H](C(=O)O)[C@H](C(=O)c2cc(C3CC3)c(OCC3CCN(Cc4c(Cl)cccc4Cl)CC3)cc2F)C[C@@H]1F the concentration at 2.5 h [9] was 7.29 µM, the fraction unbound [10] was 0.0001 and the IC50 [11] was greater than 10000 nM. It also gave an IC50 [12] of 300 nM, an IC50 [13] greater than 10000 nM and a Vd [14] of 0.94 L/kg. For the same compound, the Activity [15] was 35%, the Ki [1] was 4.9 nM and the Activity [16] was 81%. The Papp A→B [17] was 19 ×10⁻⁶ cm/s, the half-life [18] was 1.2 h and the IC50 [2] was 5900 nM. For the same compound, the IC50 [19] was 25 nM, the concentration at 2.5 h [20] was 1.77 µM and the IC50 [3] was 99 nM. For the same compound, the F [21] was 45%, the EC50 [22] was 2720 nM and the IC50 [23] was 15 nM. It also gave a concentration at 2.5 h [24] of 50.9 µM, a half-life [25] of 3.6 h and a CLhep predicted [4] of 51 mL/min/kg. For the same compound, the concentration at 2.5 h [26] was 20.8 µM, the AUC ([5]; po, 3 mg/kg) was 9.6 µM·h and the IC50 [27] was greater than 10000 nM. For the same compound, the concentration at 2.5 h [28] was 0.33 µM, the CLhep predicted [29] was 6.2 mL/min/kg and the IC50 [30] was greater than 10000 nM. It also gave an IC50 [31] greater than 10000 nM, an Activity [32] of 100% and a solubility kinetic [33] of 58 µM (≈ 33.7 µg/mL). It also gave an efflux ratio [34] of 0.92, a fraction unbound [35] of 0.0001 and an efflux ratio [36] of 2.8. For the same compound, the Cmax [37] was 1.5 µM, the IC50 [6] was 13 nM and the CLhep predicted [8] was 11 mL/min/kg. The CLhep predicted [38] was 21 mL/min/kg, the Kp at 2.5 h [39] was roughly 0.12 and the Activity [40] was 96%.
C[C@@]1(C(=O)O)CCCN1C(=O)c1cc(C2CC2)c(OCC23CC4CC(CC(C4)C2)C3)cc1F showed a Ki [1] of 100 nM.
For O=C(O)[C@@H]1[C@H](O)CCN1C(=O)c1cc(C2CC2)c(OCC23CC4CC(CC(C4)C2)C3)cc1F, the Ki [1] was 160 nM.
O=C(O)[C@@H]1C[C@H](F)CN1C(=O)c1cc(C2CC2)c(OCC23CC4CC(CC(C4)C2)C3)cc1F showed a Ki [1] of 560 nM.
In the case of C[C@H]1C[C@@H](C(=O)O)N(C(=O)c2cc(C3CC3)c(OCC34CC5CC(CC(C5)C3)C4)cc2F)C1, the Ki [1] is reported as 49 nM.
With O=C(O)[C@@H]1CCCN1C(=O)c1cc(C2CC2)c(OCC23CC4CC(CC(C4)C2)C3)cc1F the Ki [1] was 20 nM, the IC50 [3] was 180 nM and the CLhep predicted [4] was 61 mL/min/kg. The AUC ([5]; read-out: AUC) was 0.079 µM·h, the IC50 [6] was 33 nM and the fold change (FC) [7] was 2.2. It also gave a CLhep predicted [8] of 11 mL/min/kg.
Compound O=C(O)[C@@H]1CC(F)(F)CN1C(=O)c1cc(C2CC2)c(OCC23CC4CC(CC(C4)C2)C3)cc1F has a Ki [1] of 35 nM.
